Results from patent US12728177B2, “Disinfectant composition with rapid antiviral efficacy” (priority 2015, dated 2026).

Test system: Bacteriophage Phi X174 (ATCC 13706-81)
Assay: Virucidal infectivity (percent reduction in virus infectivity, E. coli outgrowth with resazurin dye);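 note: exposed phage diluted into broth, E. coli outgrowth followed 16-24 h at 37 °C by fluorescence rate, unexposed phage set as 100% signal, phage-free as 0%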
Details: 10-minute exposure
Procedure: Bacteriophage Phi X174 (ATCC 13706-81) was added 1:10 (−108 plaque forming units (PFU) per sample) into a solution containing the composition of interest. Following a 10-minute exposure, the sample was transferred 1:10 into Tryptic Soy Broth (TSB). Following 10 minutes in TSB, a second 1:10 dilution was completed into an outgrowth solution for the Phi X174 host (E. coli ATCC 13706) that contained TSB and a resazurin dye. E. coli outgrowth was then monitored at 37° C. for 16-24 hours and the rate of fluorescence development was calculated. The rate observed when Phi X174 was not exposed to any composition represented a 100% Phi X174 signal. The rate observed without Phi X174 present represented a “0% signal.” The rate obtained following Phi X174 exposure to a given composition was compared to the signal obtained with no exposure to calculate the “percent reduction in virus infectivity.”

Structure (SMILES): CCCCCCCC/C=C\CCCCCCCC(=O)N(C)CCS(=O)(=O)[O-].[Na+] [Hostapon TPHC, Sodium Methyl Oleoyl Taurate]
- % Reduction, Secondary Antiviral Agent Alone (agent alone 25 mM): 0%
- % Reduction, Secondary Antiviral Agent Alone (agent alone 42 mM): 0%
- % Reduction, Secondary Antiviral Agent Alone (agent alone 50 mM): 0%
- % Reduction, Secondary Antiviral Agent Alone (agent alone 67 mM): 0%
- reduction in virus infectivity, in Combination with Maleic Acid (3 mM) (secondary agent 25 mM + Maleic Acid 3 mM): 0%
- reduction in virus infectivity, in Combination with Phosphonc Acid (50-150 mM) (secondary agent 25 mM + Phosphonc Acid 50-150 mM): 99%
- reduction in virus infectivity, in Combination with Sulfosuccinic Acid (10-32 mM) (secondary agent 25 mM + Sulfosuccinic Acid 10-32 mM): 99%
- reduction in virus infectivity, in Combination with Maleic Acid (3 mM) (secondary agent 42 mM + Maleic Acid 3 mM): 0%
- reduction in virus infectivity, in Combination with Phosphonc Acid (50-150 mM) (secondary agent 42 mM + Phosphonc Acid 50-150 mM): 96%
- reduction in virus infectivity, in Combination with Sulfosuccinic Acid (10-32 mM) (secondary agent 42 mM + Sulfosuccinic Acid 10-32 mM): 88%
- reduction in virus infectivity, in Combination with Maleic Acid (3 mM) (secondary agent 50 mM + Maleic Acid 3 mM): 0%
- reduction in virus infectivity, in Combination with Phosphonc Acid (50-150 mM) (secondary agent 50 mM + Phosphonc Acid 50-150 mM): 99%
- reduction in virus infectivity, in Combination with Sulfosuccinic Acid (10-32 mM) (secondary agent 50 mM + Sulfosuccinic Acid 10-32 mM): 50%
- reduction in virus infectivity, in Combination with Maleic Acid (3 mM) (secondary agent 67 mM + Maleic Acid 3 mM): 0%
- reduction in virus infectivity, in Combination with Phosphonc Acid (50-150 mM) (secondary agent 67 mM + Phosphonc Acid 50-150 mM): 99%
- reduction in virus infectivity, in Combination with Sulfosuccinic Acid (10-32 mM) (secondary agent 67 mM + Sulfosuccinic Acid 10-32 mM): 1%

Structure (SMILES): CCCCCCCCCC[N+](C)(C)[O-] [Mackamine C-10, Decylamina oxide]
- % Reduction, Secondary Antiviral Agent Alone (agent alone 6 mM): 7%
- % Reduction, Secondary Antiviral Agent Alone (agent alone 18 mM): 4%
- % Reduction, Secondary Antiviral Agent Alone (agent alone 53 mM): 11%
- % Reduction, Secondary Antiviral Agent Alone (agent alone 183 mM): 30%
- reduction in virus infectivity, in Combination with Maleic Acid (3 mM) (secondary agent 30 mM + Maleic Acid 3 mM): 10%
- reduction in virus infectivity, in Combination with Phosphonc Acid (50-150 mM) (secondary agent 30 mM + Phosphonc Acid 50-150 mM): 0%
- reduction in virus infectivity, in Combination with Sulfosuccinic Acid (10-32 mM) (secondary agent 30 mM + Sulfosuccinic Acid 10-32 mM): 6%
- reduction in virus infectivity, in Combination with Maleic Acid (3 mM) (secondary agent 49 mM + Maleic Acid 3 mM): 35%
- reduction in virus infectivity, in Combination with Phosphonc Acid (50-150 mM) (secondary agent 49 mM + Phosphonc Acid 50-150 mM): 0%
- reduction in virus infectivity, in Combination with Sulfosuccinic Acid (10-32 mM) (secondary agent 49 mM + Sulfosuccinic Acid 10-32 mM): 0%
- reduction in virus infectivity, in Combination with Maleic Acid (3 mM) (secondary agent 59 mM + Maleic Acid 3 mM): 64%
- reduction in virus infectivity, in Combination with Phosphonc Acid (50-150 mM) (secondary agent 59 mM + Phosphonc Acid 50-150 mM): 0%
- reduction in virus infectivity, in Combination with Sulfosuccinic Acid (10-32 mM) (secondary agent 59 mM + Sulfosuccinic Acid 10-32 mM): 2%
- reduction in virus infectivity, in Combination with Maleic Acid (3 mM) (secondary agent 79 mM + Maleic Acid 3 mM): 62%
- reduction in virus infectivity, in Combination with Phosphonc Acid (50-150 mM) (secondary agent 79 mM + Phosphonc Acid 50-150 mM): 0%
- reduction in virus infectivity, in Combination with Sulfosuccinic Acid (10-32 mM) (secondary agent 79 mM + Sulfosuccinic Acid 10-32 mM): 0%

Structure (SMILES): O=C(O)/C=C\C(=O)O [Maleic Acid]
- reduction in virus infectivity, Primary Antiviral Agent without secondary agent (None) (Maleic Acid 3 mM, no secondary agent): 1-8%

Structure (SMILES): NC(N)=O [Urea]
- % Reduction, Secondary Antiviral Agent Alone (agent alone 7 mM): 0%
- % Reduction, Secondary Antiviral Agent Alone (agent alone 20 mM): 0%
- % Reduction, Secondary Antiviral Agent Alone (agent alone 60 mM): 0%
- % Reduction, Secondary Antiviral Agent Alone (agent alone 180 mM): 0%
- reduction in virus infectivity, in Combination with Maleic Acid (3 mM) (secondary agent 3 mM + Maleic Acid 3 mM): 8%
- reduction in virus infectivity, in Combination with Phosphonc Acid (50-150 mM) (secondary agent 3 mM + Phosphonc Acid 50-150 mM): 57%
- reduction in virus infectivity, in Combination with Sulfosuccinic Acid (10-32 mM) (secondary agent 3 mM + Sulfosuccinic Acid 10-32 mM): 1%
- reduction in virus infectivity, in Combination with Maleic Acid (3 mM) (secondary agent 9 mM + Maleic Acid 3 mM): 6%
- reduction in virus infectivity, in Combination with Phosphonc Acid (50-150 mM) (secondary agent 9 mM + Phosphonc Acid 50-150 mM): 71%
- reduction in virus infectivity, in Combination with Sulfosuccinic Acid (10-32 mM) (secondary agent 9 mM + Sulfosuccinic Acid 10-32 mM): 0%
- reduction in virus infectivity, in Combination with Maleic Acid (3 mM) (secondary agent 28 mM + Maleic Acid 3 mM): 1%
- reduction in virus infectivity, in Combination with Phosphonc Acid (50-150 mM) (secondary agent 28 mM + Phosphonc Acid 50-150 mM): 53%
- reduction in virus infectivity, in Combination with Sulfosuccinic Acid (10-32 mM) (secondary agent 28 mM + Sulfosuccinic Acid 10-32 mM): 25%
- reduction in virus infectivity, in Combination with Maleic Acid (3 mM) (secondary agent 85 mM + Maleic Acid 3 mM): 0%
- reduction in virus infectivity, in Combination with Phosphonc Acid (50-150 mM) (secondary agent 85 mM + Phosphonc Acid 50-150 mM): 56%
- reduction in virus infectivity, in Combination with Sulfosuccinic Acid (10-32 mM) (secondary agent 85 mM + Sulfosuccinic Acid 10-32 mM): 0%
